Where “and” joins values, the source holds several entries; their conditions need not be identical. Equal entries are not always repeated.
Columns and labels:
[1] = system: sunflower line GM40 (A122T); assay: Greenhouse imazapir dose response, GM40; format: in vivo, Helianthus annuus; settings: 14 DAT
Protocol: (§1) A greenhouse study was conducted to quantify and contrast the imazapir sensivity of the mutants A122T and A205V in different genetic backgrounds at the whole plant level in sunflower. Seeds of the different sunflower lines that were used in this study were obtained under field conditions.
(§2) Seeds were sown in Petri dishes and, after germination, plantlets were transplanted to pots of 10 cm of diameter in a potting media consisting of equal parts of vermiculite, soil and sand. Plants were grown in a greenhouse under natural light conditions supplemented with 400 W sodium halide lamps to provide a 16 hrs daylength. Day/night temperatures were 25 and 20° C., respectively. At the V2 stage 10 plants of each genotype were randomly assigned to each treatment consisting of […] imazapir doses (0, 40, 80, 160, 240, 320, 400 and 480 g ai/ha), and a zero-time biomass determination. Experiment was arranged as a randomized block design with a full factorial (sunflower line×treatment) arrangement of treatments and 10 replications.
(§3) On the day of herbicide application ten plants of each genotype were cut at the cotyledonal node and dried at 60° C. for 48 hrs zero-time for dried weight determination. […] Height was determined as the distance between the cotyledonal node and the apex of each plant. For root biomass determination, each plant was taken from the pot and the potting media was washed out from the roots. Above ground biomass data from each line were converted to biomass accumulation after application by subtracting the appropriate average zero-time biomass from each sample. Dry biomass data were converted to percentages of the untreated control plants within each line to allow direct comparisons between groups.

[2] = system: sunflower genotypes carrying the A122T mutation event; assay: Greenhouse imazapir dose response, A122T genotypes together; format: in vivo, Helianthus annuus; settings: 14 DAT; for biomass accumulation, Dif with control / plant height, Dif with Control / root dry weight, Dif with control: A122T mean; for Phytotoxicity Index, Dif A205V − A122T / biomass accumulation, Dif A122T − A205V / plant height, Dif A122T − A205V / root dry weight, Dif A122T − A205V: difference of group means; for biomass accumulation, % of untreated, Mean / plant height, % of untreated, Mean / root dry weight, % of untreated, Mean: six A122T genotypes; for Phytotoxicity Index, Mean: three A122T genotypes
Protocol: as §1, §2, §3

CC(C)C1(C)N=C(c2ncccc2C(=O)O)NC1=O (centres unmarked) [Imazapyr, imazapyr] was tested, and the “biomass accumulation, % of untreated” value ([1]; 0.5x (40 g ai/ha)) was 96.5%, the “plant height, % of untreated” value ([1]; 0.5x (40 g ai/ha)) was 99.6% and the “root dry weight, % of untreated” value ([1]; 0.5x (40 g ai/ha)) was 100%. For the same compound, the “biomass accumulation, % of untreated” value ([1]; 1x (80 g ai/ha)) was 94.1%, the “plant height, % of untreated” value ([1]; 1x (80 g ai/ha)) was 97.4% and the “root dry weight, % of untreated” value ([1]; 1x (80 g ai/ha)) was 100%. The “biomass accumulation, % of untreated” value ([1]; 2x (160 g ai/ha)) was 97.6%, the “plant height, % of untreated” value ([1]; 2x (160 g ai/ha)) was 95.2% and the “root dry weight, % of untreated” value ([1]; 2x (160 g ai/ha)) was 100%. The “biomass accumulation, % of untreated” value ([1]; 3x (240 g ai/ha)) was 95.8%, the “plant height, % of untreated” value ([1]; 3x (240 g ai/ha)) was 93.0% and the “root dry weight, % of untreated” value ([1]; 3x (240 g ai/ha)) was 92.2%. For the same compound, the “biomass accumulation, % of untreated” value ([1]; 4x (320 g ai/ha)) was 88.3%, the “plant height, % of untreated” value ([1]; 4x (320 g ai/ha)) was 93.0% and the “root dry weight, % of untreated” value ([1]; 4x (320 g ai/ha)) was 96.1%. For the same compound, the “biomass accumulation, % of untreated” value ([1]; 5x (400 g ai/ha)) was 85.6%, the “plant height, % of untreated” value ([1]; 5x (400 g ai/ha)) was 93.9% and the “root dry weight, % of untreated” value ([1]; 5x (400 g ai/ha)) was 84.2%. The “biomass accumulation, % of untreated” value ([1]; 6x (480 g ai/ha)) was 76.8%, the “plant height, % of untreated” value ([1]; 6x (480 g ai/ha)) was 84.3% and the “root dry weight, % of untreated” value ([1]; 6x (480 g ai/ha)) was 74.3%. For the same compound, the “biomass accumulation, Dif with control” value ([2]; 0.5x (40 g ai/ha)) was 1.1%, the “plant height, Dif with Control” value ([2]; 0.5x (40 g ai/ha)) was 0.6% and the “root dry weight, Dif with control” value ([2]; 0.5x (40 g ai/ha)) was 0.1%. For the same compound, the “biomass accumulation, Dif with control” value ([2]; 1x (80 g ai/ha)) was 3.2%, the “plant height, Dif with Control” value ([2]; 1x (80 g ai/ha)) was 1.4% and the “root dry weight, Dif with control” value ([2]; 1x (80 g ai/ha)) was 2.5%. For the same compound, the “biomass accumulation, Dif with control” value ([2]; 2x (160 g ai/ha)) was 5.1%, the “plant height, Dif with Control” value ([2]; 2x (160 g ai/ha)) was 2.7% and the “root dry weight, Dif with control” value ([2]; 2x (160 g ai/ha)) was 5.9%. For the same compound, the “biomass accumulation, Dif with control” value ([2]; 3x (240 g ai/ha)) was 7.2%, the “plant height, Dif with Control” value ([2]; 3x (240 g ai/ha)) was 4.4% and the “root dry weight, Dif with control” value ([2]; 3x (240 g ai/ha)) was 10.6%. For the same compound, the “biomass accumulation, Dif with control” value ([2]; 4x (320 g ai/ha)) was 12.2%, the “plant height, Dif with Control” value ([2]; 4x (320 g ai/ha)) was 6.3% and the “root dry weight, Dif with control” value ([2]; 4x (320 g ai/ha)) was 18.6%. For the same compound, the “biomass accumulation, Dif with control” value ([2]; 5x (400 g ai/ha)) was 20.7%, the “plant height, Dif with Control” value ([2]; 5x (400 g ai/ha)) was 10.2% and the “root dry weight, Dif with control” value ([2]; 5x (400 g ai/ha)) was 21.3%. The “plant height, Dif with Control” value ([2]; 6x (480 g ai/ha)) was 15.8%, the “root dry weight, Dif with control” value ([2]; 6x (480 g ai/ha)) was 38.3% and the “biomass accumulation, Dif with control” value ([2]; 6x (480 g ai/ha), listed as imazapir) was 25% and 25.4%. The “Phytotoxicity Index, Dif A205V − A122T” value ([2]; 0.5x (40 g ai/ha)) was −0.29, the “biomass accumulation, Dif A122T − A205V” value ([2]; 0.5x (40 g ai/ha)) was 4.3% and the “plant height, Dif A122T − A205V” value ([2]; 0.5x (40 g ai/ha)) was 4.9%. The “root dry weight, Dif A122T − A205V” value ([2]; 0.5x (40 g ai/ha)) was 12.7%, the “Phytotoxicity Index, Dif A205V − A122T” value ([2]; 1x (80 g ai/ha)) was −0.29 and the “biomass accumulation, Dif A122T − A205V” value ([2]; 1x (80 g ai/ha)) was 14.5%. The “plant height, Dif A122T − A205V” value ([2]; 1x (80 g ai/ha)) was 9.4%, the “root dry weight, Dif A122T − A205V” value ([2]; 1x (80 g ai/ha)) was 26.7% and the “Phytotoxicity Index, Dif A205V − A122T” value ([2]; 2x (160 g ai/ha)) was 1.87. The “biomass accumulation, Dif A122T − A205V” value ([2]; 2x (160 g ai/ha)) was 33.2%, the “plant height, Dif A122T − A205V” value ([2]; 2x (160 g ai/ha)) was 28.0% and the “root dry weight, Dif A122T − A205V” value ([2]; 2x (160 g ai/ha)) was 43.6%. The “Phytotoxicity Index, Dif A205V − A122T” value ([2]; 3x (240 g ai/ha)) was 4.81, the “biomass accumulation, Dif A122T − A205V” value ([2]; 3x (240 g ai/ha)) was 45.3% and the “plant height, Dif A122T − A205V” value ([2]; 3x (240 g ai/ha)) was 45.3%. For the same compound, the “root dry weight, Dif A122T − A205V” value ([2]; 3x (240 g ai/ha)) was 50.2%, the “Phytotoxicity Index, Dif A205V − A122T” value ([2]; 4x (320 g ai/ha)) was 6.92 and the “biomass accumulation, Dif A122T − A205V” value ([2]; 4x (320 g ai/ha)) was 52.4%. The “plant height, Dif A122T − A205V” value ([2]; 4x (320 g ai/ha)) was 59.9%, the “root dry weight, Dif A122T − A205V” value ([2]; 4x (320 g ai/ha)) was 50.3% and the “Phytotoxicity Index, Dif A205V − A122T” value ([2]; 5x (400 g ai/ha)) was 7.38. For the same compound, the “biomass accumulation, Dif A122T − A205V” value ([2]; 5x (400 g ai/ha)) was 46.9%, the “plant height, Dif A122T − A205V” value ([2]; 5x (400 g ai/ha)) was 57.8% and the “root dry weight, Dif A122T − A205V” value ([2]; 5x (400 g ai/ha)) was 47.9%. For the same compound, the “Phytotoxicity Index, Dif A205V − A122T” value ([2]; 6x (480 g ai/ha)) was 7.03, the “biomass accumulation, Dif A122T − A205V” value ([2]; 6x (480 g ai/ha)) was 44.6% and the “plant height, Dif A122T − A205V” value ([2]; 6x (480 g ai/ha)) was 54.0%. The “root dry weight, Dif A122T − A205V” value ([2]; 6x (480 g ai/ha)) was 37.3%, the “biomass accumulation, % of untreated, Mean” value ([2]; 0.5x (40 g ai/ha)) was 98.9% and the “plant height, % of untreated, Mean” value ([2]; 0.5x (40 g ai/ha)) was 99.4%. For the same compound, the “root dry weight, % of untreated, Mean” value ([2]; 0.5x (40 g ai/ha)) was 99.9%, the “biomass accumulation, % of untreated, Mean” value ([2]; 1x (80 g ai/ha)) was 96.8% and the “plant height, % of untreated, Mean” value ([2]; 1x (80 g ai/ha)) was 98.6%. For the same compound, the “root dry weight, % of untreated, Mean” value ([2]; 1x (80 g ai/ha)) was 97.5%, the “biomass accumulation, % of untreated, Mean” value ([2]; 2x (160 g ai/ha)) was 94.9% and the “plant height, % of untreated, Mean” value ([2]; 2x (160 g ai/ha)) was 97.3%. The “root dry weight, % of untreated, Mean” value ([2]; 2x (160 g ai/ha)) was 94.1%, the “biomass accumulation, % of untreated, Mean” value ([2]; 3x (240 g ai/ha)) was 92.8% and the “plant height, % of untreated, Mean” value ([2]; 3x (240 g ai/ha)) was 95.6%. The “root dry weight, % of untreated, Mean” value ([2]; 3x (240 g ai/ha)) was 89.4%, the “biomass accumulation, % of untreated, Mean” value ([2]; 4x (320 g ai/ha)) was 87.8% and the “plant height, % of untreated, Mean” value ([2]; 4x (320 g ai/ha)) was 93.7%. The “root dry weight, % of untreated, Mean” value ([2]; 4x (320 g ai/ha)) was 81.4%, the “biomass accumulation, % of untreated, Mean” value ([2]; 5x (400 g ai/ha)) was 79.3% and the “plant height, % of untreated, Mean” value ([2]; 5x (400 g ai/ha)) was 89.8%. The “root dry weight, % of untreated, Mean” value ([2]; 5x (400 g ai/ha)) was 78.7%, the “biomass accumulation, % of untreated, Mean” value ([2]; 6x (480 g ai/ha)) was 74.6% and the “plant height, % of untreated, Mean” value ([2]; 6x (480 g ai/ha)) was 84.2%. For the same compound, the “root dry weight, % of untreated, Mean” value ([2]; 6x (480 g ai/ha)) was 61.7%, the “Phytotoxicity Index, Mean” value ([2]; 0.5x (40 g ai/ha)) was 0.3 and the “Phytotoxicity Index, Mean” value ([2]; 1x (80 g ai/ha)) was 0.3. For the same compound, the “Phytotoxicity Index, Mean” value ([2]; 2x (160 g ai/ha)) was 0.3, the “Phytotoxicity Index, Mean” value ([2]; 3x (240 g ai/ha)) was 0.3 and the “Phytotoxicity Index, Mean” value ([2]; 4x (320 g ai/ha)) was 0.5. For the same compound, the “Phytotoxicity Index, Mean” value ([2]; 5x (400 g ai/ha)) was 0.8 and the “Phytotoxicity Index, Mean” value ([2]; 6x (480 g ai/ha)) was 1.2.

Source: US20150181873A1, “HERBICIDE-RESISTANT SUNFLOWER PLANTS, POLYNUCLEOTIDES ENCODING HERBICIDE=RESISTANT ACETO HYDROXY ACID SYNTHASE LARGE SUBUNIT PROTEINS, AND METHODS OF USE” (NIDERA S.A., priority 2013, published 2015)
